As a reminder, the Kd is the constant that tells how readily two partners part at equilibrium.

Results on 15 molecules are retold here after publication PMC10054758, “A Structural-Reporter Group to Determine the Core Conformation of Sialyl Lewis^x Mimetics” (Molecules, 2023).

The target of assay [1] is T1, E-selectin (Homo sapiens, UniProt P16581).
T1 construct: mixed 1:1 with a solution of 0.2 μM labeled E-SelectinSCR2; made in house
T1 sequence (P16581 22-301 limits assumed): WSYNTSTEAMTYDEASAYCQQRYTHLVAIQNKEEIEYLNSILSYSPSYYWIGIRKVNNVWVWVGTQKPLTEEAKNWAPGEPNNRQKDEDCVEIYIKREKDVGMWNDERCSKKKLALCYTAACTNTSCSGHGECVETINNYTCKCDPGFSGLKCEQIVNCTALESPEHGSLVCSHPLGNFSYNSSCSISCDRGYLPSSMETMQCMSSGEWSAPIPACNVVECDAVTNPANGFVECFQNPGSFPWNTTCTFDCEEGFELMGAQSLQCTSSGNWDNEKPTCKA
The experiment in a line: E-selectin affinity, literature data. It counts as binding. The settings on record: for ΔG (Gibbs Free Energy): calculated ΔG = -RT lnKD from literature KD.

Assay [2] concerns the target T1, E-selectin. The experiment in a line: Microscale thermophoresis (MST) affinity measurement. It counts as binding. The settings on record: for Kd: MST, 25 °C, labeled E-selectinSCR2. How it is done: E-selectin production (cloning, transfection, expression, and purification) and labeling were previously described for the E-selectinSCR6-IgGFc construct and for the E-selectinSCR2 construct.
E-selectinLEC2 was labeled using the amine reactive protein labeling kit BLUE-NHS as described in the Supporting Information. Buffer exchange and labeling were performed according to the manufacturer’s protocol. […] The labeled protein was dialyzed over night against assay buffer (10 mM HEPES pH 7.4, 150 mM NaCl, 1 mM CaCl2) using Slide-A-Lyzer dialysis cassettes (10 kDa MWCO). Protein concentration was determined by HPLC-UV against a BSA standard.
Microscale thermophoresis (MST) experiments were carried out at 25 °C with 100% LED power, 50% laser power, a laser on time of 30 s, and a laser off time of 5 sec using standard treated capillaries. Ligands were dissolved in assay buffer supplemented with 0.05% v/v Tween20 and titrated 1:1 for a total of 16 dilution steps. The dilution series of ligand was mixed 1:1 with a solution of 0.2 μM labeled E-SelectinSCR2 and incubated for 10 min at room temperature before measurement. Datapoints were normalized using the bound and unbound borders achieved by NanoTemper Analysis 1.2.205 software (NanoTemper Technologies GmbH, Munich, Germany) and analyzed/illustrated with GraphPad Prism 5.0 (GraphPad Software, La Jolla, CA, USA). The measurements were globally fitted using Equation (1) for single site binding. (1) PL=(CP+CL+KD) - (CP+CL+KD) - 4CPCL/2CP where [PL] is the protein–ligand complex concentration and KD is the dissociation constant. CP represents the total concentration of protein and CL the total concentration of ligand.
On the technique in general: In MST a laser heats a spot of the sample, and binding alters the fluorescence response.

The target in assay [3] is T1, E-selectin. The settings on record: literature data; cited from earlier work.
Assay [4] has as its target T1, E-selectin. The arrangement: method as in PMID 22782926. The settings on record: binding to E-selectin; cited from earlier work.

Read-outs that look alike come from different tables or passages of the source.

On to `C[C@@H]1O[C@@H](O[C@@H]2CCCC[C@H]2O[C@@H]2O[C@H](CO)[C@H](O)[C@H](O[C@@H](CC3CCCCC3)C(=O)O)[C@H]2O)[C@@H](O)[C@H](O)[C@@H]1O` [2a], for which the figures for the improvement of affinity result in assay [1] (GlcNAc replaced by (R,R)-cyclohexane-1,2-diol (22→2a)) and in assay [1] (compared to 21) were “five-fold” and 80 fold, respectively. The “ΔG (Gibbs Free Energy)” value in assay [1] was -24.06 kJ/mol. Also, in assay [1] (relative to 21 (ΔΔG21→2a)), the ΔΔG amounted to 10.89 kJ/mol.

In assay [2], `CC(C)[C@H]1CCC[C@@H](O[C@@H]2O[C@H](CO)[C@H](O)[C@H](O[C@@H](CC3CCCCC3)C(=O)O)[C@H]2O)[C@@H]1O[C@@H]1O[C@@H](C)[C@@H](O)[C@@H](O)[C@@H]1O` [2d] came in with an equilibrium dissociation constant (Kd) of 6.8 µM.

`C[C@@H]1O[C@@H](O[C@@H]2[C@@H](Cc3ccccc3)CCC[C@H]2O[C@@H]2O[C@H](CO)[C@H](O)[C@H](O[C@@H](CC3CCCCC3)C(=O)O)[C@H]2O)[C@@H](O)[C@H](O)[C@@H]1O` [2e] had a Kd in assay [2] of 18 µM.

With `C[C@@H]1O[C@@H](O[C@@H]2[C@@H](CC3CCCCC3)CCC[C@H]2O[C@@H]2O[C@H](CO)[C@H](O)[C@H](O[C@@H](CC3CCCCC3)C(=O)O)[C@H]2O)[C@@H](O)[C@H](O)[C@@H]1O` [2f], the equilibrium dissociation constant (Kd) in assay [2] was determined as 14 µM.

As for `C[C@@H]1O[C@@H](O[C@@H]2[C@@H](c3ccccc3)CCC[C@H]2O[C@@H]2O[C@H](CO)[C@H](O)[C@H](O[C@@H](CC3CCCCC3)C(=O)O)[C@H]2O)[C@@H](O)[C@H](O)[C@@H]1O` [2g], binding in assay [2] was characterised by a dissociation constant (Kd) of 8.8 µM.

In turn, `C[C@@H]1O[C@@H](O[C@H]2[C@H](O[C@@H]3O[C@H](CO)[C@H](O)[C@H](O[C@@H](CC4CCCCC4)C(=O)O)[C@H]3O)CCC[C@@H]2C(C)(C)C)[C@@H](O)[C@H](O)[C@@H]1O` [2h] yielded an equilibrium dissociation constant (Kd) in assay [2] of 51 µM.

As for `CCCC[C@H]1CCC[C@@H](O[C@@H]2O[C@H](CO)[C@H](O)[C@H](O[C@@H](CC3CCCCC3)C(=O)O)[C@H]2O)[C@@H]1O[C@@H]1O[C@@H](C)[C@@H](O)[C@@H](O)[C@@H]1O` [2i], the dissociation constant (Kd) in assay [2] amounted to 5.4 µM.

`CCCCCC[C@H]1CCC[C@@H](O[C@@H]2O[C@H](CO)[C@H](O)[C@H](O[C@@H](CC3CCCCC3)C(=O)O)[C@H]2O)[C@@H]1O[C@@H]1O[C@@H](C)[C@@H](O)[C@@H](O)[C@@H]1O` [2j] gave a Kd in assay [2] of 4.3 µM. Moreover, the “ΔG (Gibbs Free Energy)” value in assay [2] (calculated ΔG = -RT lnKD from MST KD) was -30.63 kJ/mol. The ΔΔG in assay [2] (relative to 2a (ΔΔG2a→2b, ΔΔG2a→2j)) was determined as 6.57 kJ/mol.

Turning to `C[C@@H]1O[C@@H](O[C@@H]2[C@@H](CCCc3ccccc3)CCC[C@H]2O[C@@H]2O[C@H](CO)[C@H](O)[C@H](O[C@@H](CC3CCCCC3)C(=O)O)[C@H]2O)[C@@H](O)[C@H](O)[C@@H]1O` [2k], in assay [2], the dissociation constant Kd amounted to 28 µM.

In assay [2], `COCCOC[C@H]1CCC[C@@H](O[C@@H]2O[C@H](CO)[C@H](O)[C@H](O[C@@H](CC3CCCCC3)C(=O)O)[C@H]2O)[C@@H]1O[C@@H]1O[C@@H](C)[C@@H](O)[C@@H](O)[C@@H]1O` [2l] yielded a Kd of 31 µM.

In the case of `CC(C)C[C@H]1CCC[C@@H](O[C@@H]2O[C@H](CO)[C@H](O)[C@H](O[C@@H](CC3CCCCC3)C(=O)O)[C@H]2O)[C@@H]1O[C@@H]1O[C@@H](C)[C@@H](O)[C@@H](O)[C@@H]1O` [2m], the Kd in assay [2] turned out to be 6 µM.

Molecule `C[C@@H]1O[C@@H](O[C@@H]2[C@@H](CC(F)(F)F)CCC[C@H]2O[C@@H]2O[C@H](CO)[C@H](O)[C@H](O[C@@H](CC3CCCCC3)C(=O)O)[C@H]2O)[C@@H](O)[C@H](O)[C@@H]1O` [2n] had a Kd in assay [2] of 9.5 µM.

Turning to `C[C@@H]1O[C@@H](OCCO[C@@H]2O[C@H](CO)[C@H](O)[C@H](O[C@@H](CC3CCCCC3)C(=O)O)[C@H]2O)[C@@H](O)[C@H](O)[C@@H]1O` [compound 21, reference compound], the Kd in assay [3] is 4920 µM. For the same molecule, the “ΔG (Gibbs Free Energy)” value in assay [1] is -13.17 kJ/mol.

On to `CO[C@@H]1O[C@H](CO)[C@@H](O[C@@H]2O[C@H](CO)[C@H](O)[C@H](O[C@@H](CC3CCCCC3)C(=O)O)[C@H]2O)[C@H](O[C@@H]2O[C@@H](C)[C@@H](O)[C@@H](O)[C@@H]2O)[C@H]1NC(C)=O` [compound 22], for which the equilibrium dissociation constant (Kd) in assay [3] is 280 µM.

With `COC1OC(CO)C(OC2OC(CO)C(O)C(OC3(C(=O)O)CC(O)C(NC(C)=O)C(C(O)C(O)CO)O3)C2O)C(OC2OC(C)C(O)C(O)C2O)C1NC(C)=O` (stereo not shown) [sLe^x (1), sialyl Lewis^x], in assay [4], the “entropy term −TΔS°” value is 22.6 kJ/mol. Further, the Kd in assay [3] is 877 µM.
